What was measured:
Test in all cases: relative viability (nuclei count vs DMSO), 5 days (fraction); higher = more cells survive
CAL-12T = tested on: CAL-12T
Summary of the method: (§1)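 Each reported value is a median over duplicate plates. It expresses relative viability: treated-well nuclei count divided by vehicle-well nuclei count. Lung cancer cell lines in 1536-well plates were dosed by pin tool a day after seeding, alone with one drug or with a fixed anchor-drug dose plus five library-drug doses (not always all listed) in √10 steps, and nuclei were counted after 5 days.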

COR-L 105 = tested on: COR-L 105
Summary of the method: as §1

H3255 = tested on: H3255
Summary of the method: as §1

HARA = tested on: HARA
Summary of the method: as §1

HCC-15 = tested on: HCC-15
Summary of the method: as §1

HCC-366 = tested on: HCC-366
Summary of the method: as §1

LC-2-ad = tested on: LC-2-ad
Summary of the method: as §1

LU99A = tested on: LU99A
Summary of the method: as §1

NCI-H1395 = tested on: NCI-H1395
Summary of the method: as §1

NCI-H1666 = tested on: NCI-H1666
Summary of the method: as §1

NCI-H1734 = tested on: NCI-H1734
Summary of the method: as §1

NCI-H1944 = tested on: NCI-H1944
Summary of the method: as §1

NCI-H1975 = tested on: NCI-H1975
Summary of the method: as §1

NCI-H1993 = tested on: NCI-H1993
Summary of the method: as §1

NCI-H2228 = tested on: NCI-H2228
Summary of the method: as §1

NCI-H3122 = tested on: NCI-H3122
Summary of the method: as §1

NCI-H520 = tested on: NCI-H520
Summary of the method: as §1

NCI-H647 = tested on: NCI-H647
Summary of the method: as §1

NCI-H661 = tested on: NCI-H661
Summary of the method: as §1

NCI-H838 = tested on: NCI-H838
Summary of the method: as §1

PC-14 = tested on: PC-14
Summary of the method: as §1

PC-3 [JPC-3] = tested on: PC-3 [JPC-3]
Summary of the method: as §1

SK-LU-1 = tested on: SK-LU-1
Summary of the method: as §1

Q: Which results are given for Cc1cnc(-c2cnc(NCCNc3ccc(C#N)cn3)nc2-c2ccc(Cl)cc2Cl)[nH]1 + CS(=O)(=O)N1CCN(Cc2cc3nc(-c4cccc5[nH]ncc45)nc(N4CCOCC4)c3s2)CC1 [Pictilisib] (partner 1 µM)?
A: relative viability (CAL-12T; first compound 0.253 µM): 0.52; relative viability (CAL-12T; first compound 2.53 µM): 0.53; relative viability (COR-L 105; first compound 0.08 µM): 0.344; relative viability (COR-L 105; first compound 0.253 µM): 0.468; relative viability (COR-L 105; first compound 0.8 µM): 0.176; relative viability (COR-L 105; first compound 2.53 µM): 0.385; relative viability (H3255; first compound 0.08 µM): 0.554; relative viability (H3255; first compound 0.253 µM): 0.463; relative viability (H3255; first compound 0.8 µM): 0.469; relative viability (H3255; first compound 2.53 µM): 0.476; relative viability (HARA; first compound 0.08 µM): 0.398; relative viability (HARA; first compound 0.253 µM): 0.414; relative viability (HARA; first compound 0.8 µM): 0.433; relative viability (HARA; first compound 2.53 µM): 0.454; relative viability (HCC-15; first compound 0.08 µM): 0.681; relative viability (HCC-15; first compound 0.253 µM): 0.669; relative viability (HCC-15; first compound 0.8 µM): 0.746; relative viability (HCC-15; first compound 2.53 µM): 0.739; relative viability (HCC-366; first compound 0.08 µM): 0.148; relative viability (HCC-366; first compound 0.253 µM): 0.128; relative viability (HCC-366; first compound 0.8 µM): 0.119; relative viability (HCC-366; first compound 2.53 µM): 0.132; relative viability (LC-2-ad; first compound 0.08 µM): 0.489; relative viability (LC-2-ad; first compound 0.8 µM): 0.441; relative viability (LC-2-ad; first compound 2.53 µM): 0.468; relative viability (LU99A; first compound 0.08 µM): 0.314; relative viability (LU99A; first compound 0.253 µM): 0.348; relative viability (LU99A; first compound 0.8 µM): 0.348; relative viability (LU99A; first compound 2.53 µM): 0.41; relative viability (NCI-H1395; first compound 0.08 µM): 0.759; relative viability (NCI-H1395; first compound 0.253 µM): 0.585; relative viability (NCI-H1395; first compound 0.8 µM): 0.601; relative viability (NCI-H1395; first compound 2.53 µM): 0.65; relative viability (NCI-H1666; first compound 0.08 µM): 0.434; relative viability (NCI-H1666; first compound 0.253 µM): 0.295; relative viability (NCI-H1666; first compound 0.8 µM): 0.332; relative viability (NCI-H1666; first compound 2.53 µM): 0.589; relative viability (NCI-H1734; first compound 0.08 µM): 0.548; relative viability (NCI-H1734; first compound 0.253 µM): 0.43; relative viability (NCI-H1734; first compound 0.8 µM): 0.432; relative viability (NCI-H1734; first compound 2.53 µM): 0.522; relative viability (NCI-H1944; first compound 0.08 µM): 0.342; relative viability (NCI-H1944; first compound 0.8 µM): 0.334; relative viability (NCI-H1944; first compound 2.53 µM): 0.38; relative viability (NCI-H1975; first compound 0.08 µM): 0.328; relative viability (NCI-H1975; first compound 0.253 µM): 0.297; relative viability (NCI-H1975; first compound 0.8 µM): 0.299; relative viability (NCI-H1975; first compound 2.53 µM): 0.338; relative viability (NCI-H1993; first compound 0.08 µM): 0.92; relative viability (NCI-H1993; first compound 0.253 µM): 0.911; relative viability (NCI-H1993; first compound 0.8 µM): 0.87; relative viability (NCI-H1993; first compound 2.53 µM): 0.806; relative viability (NCI-H2228; first compound 0.08 µM): 0.263; relative viability (NCI-H2228; first compound 0.253 µM): 0.229; relative viability (NCI-H2228; first compound 0.8 µM): 0.569; relative viability (NCI-H2228; first compound 2.53 µM): 0.287; relative viability (NCI-H3122; first compound 0.08 µM): 0.65; relative viability (NCI-H3122; first compound 0.253 µM): 0.64; relative viability (NCI-H3122; first compound 0.8 µM): 0.646; relative viability (NCI-H3122; first compound 2.53 µM): 0.763; relative viability (NCI-H520; first compound 0.08 µM): 0.286; relative viability (NCI-H520; first compound 0.253 µM): 0.336; relative viability (NCI-H520; first compound 0.8 µM): 0.346; relative viability (NCI-H520; first compound 2.53 µM): 0.497; relative viability (NCI-H647; first compound 0.08 µM): 0.451; relative viability (NCI-H647; first compound 0.253 µM): 0.45; relative viability (NCI-H647; first compound 0.8 µM): 0.366; relative viability (NCI-H647; first compound 2.53 µM): 0.458; relative viability (NCI-H661; first compound 0.08 µM): 0.476; relative viability (NCI-H661; first compound 0.253 µM): 0.395; relative viability (NCI-H661; first compound 0.8 µM): 0.476; relative viability (NCI-H661; first compound 2.53 µM): 0.393; relative viability (NCI-H838; first compound 0.08 µM): 0.525; relative viability (NCI-H838; first compound 0.253 µM): 0.552; relative viability (NCI-H838; first compound 0.8 µM): 0.737; relative viability (NCI-H838; first compound 2.53 µM): 1.19; relative viability (PC-14; first compound 0.08 µM): 0.662; relative viability (PC-14; first compound 0.253 µM): 0.775; relative viability (PC-14; first compound 0.8 µM): 0.55; relative viability (PC-14; first compound 2.53 µM): 0.645; relative viability (PC-3 [JPC-3]; first compound 0.08 µM): 0.772; relative viability (PC-3 [JPC-3]; first compound 0.253 µM): 0.666; relative viability (PC-3 [JPC-3]; first compound 0.8 µM): 0.798; relative viability (PC-3 [JPC-3]; first compound 2.53 µM): 0.79; relative viability (SK-LU-1; first compound 0.08 µM): 0.701; relative viability (SK-LU-1; first compound 0.253 µM): 0.604; relative viability (SK-LU-1; first compound 0.8 µM): 0.623; relative viability (SK-LU-1; first compound 2.53 µM): 0.754
